Experimental data from patent publication US4556673A, “Use of phthalyltaurine sulfonamide derivatives in treating epilepsy and arrythmia” (priority 1980, dated 1985).
Like-named read-outs stand apart in the source and are kept apart here.

Columns and labels:
[1] = system: convulsions induced by electrical stimulation (maximal electroshock); assay: Maximal electroshock test (MES), 50 mA electrical stimulation; assay type: in vivo, mice; details: Mus musculus, ip, read-out: Anticonvulsive activity ED50, MES
Text: (§1) The anticonvulsive effect of the compounds was studied on three types of experimental epilepsy. Convulsions were induced in mice by subcutaneous administration of pentylene tetrazole or strychnine, or by electrical stimulation with a 50 mA current (E. A. Swinyard, Assay of antiepileptic drug activity in experimental animals: Standard tests in International Enocyclopedica of Pharmacology and Therapeutics, Section 19, vol 1: Anticonvulsant Drugs, 1972). […] No sedative effect could be observed.
MES = maximal electroshock test

[2] = system: arrhythmia; assay: Antiarrhythmic effect (general statement); details: in words
Text: Isolated perfused rat heart, prepared after the method of Langendorff, and isolated spontaneously beating rat atria (W. C. Holland & J. H. Burn, J. Brit. Med., vol 1, 1031, 1958) were used for studies of the antiarrhythmic effect of the compounds. Arrhythmia was induced by K^+ deficiency and by aconitine. […] Besides the above-described in vitro tests, an in vivo method was used: the antiarrhythmic effect of the compounds was studied in quineapigs with ouabain-induced arrhythmia.

[3] = system: hexobarbiturate-induced sleep in mice; assay: Hexobarbiturate-induced sleep; assay type: in vivo
[4] = system: arrhythmia in guinea-pigs after infusion of ouabain; assay: Ouabain-induced arrhythmia in guinea-pigs; details: for Ouabain dose ± SE, inducing arrhythmia / Ouabain dose ± SE, inducing asystole: ouabain 20 μg/kg/min.
Text: Arrhythmia was induced by K^+ deficiency and by aconitine. […] Besides the above-described in vitro tests, an in vivo method was used: the antiarrhythmic effect of the compounds was studied in quineapigs with ouabain-induced arrhythmia.

[5] = system: convulsions induced by pentylene tetrazole, strychnine or electrical stimulation; assay: Anticonvulsive effect in three types of experimental epilepsy; assay type: in vivo, mice; details: in words
Text: as §1

[6] = system: convulsions induced by pentylene tetrazole; assay: Metrazole (pentylene tetrazole) convulsant threshold test (MET); assay type: in vivo, mice; details: Mus musculus, ip, read-out: Anticonvulsive activity ED50, MET
Text: as §1
MET = metrazole (= pentylene tetrazole) convulsant threshold test.

[7] = mice, intraperitoneal; cited from earlier work
[8] = system: convulsions induced by strychnine; assay: Strychnine convulsant threshold test (STR); assay type: in vivo, mice; details: Mus musculus, ip, read-out: Anticonvulsive activity ED50, STR
Text: as §1
STR = strychnine convulsant threshold test

[9] = system: bacteria; details: cited from earlier work
[10] = injectable forms; cited from earlier work
[11] = system: epileptic patients; details: cited from earlier work
[12] = system: experimental epilepsy; details: several types of experimental epilepsy; cited from earlier work
[13] = mice, maximal electroshock test
[14] = O-value (initial), group dosed 3 mg/kg iv
[15] = O-value (initial), group dosed 6 mg/kg iv
[16] = O-value (initial), group dosed 12 mg/kg iv
[17] = mice, metrazole convulsant threshold test

| Compound | ED50 [1, 13] | HR ± SE, 5 min. after adm. of test compound ([4]; 3 mg/kg iv) | Ouabain dose ± SE, inducing arrhythmia ([4]; 3 mg/kg iv) | Ouabain dose ± SE, inducing asystole ([4]; 3 mg/kg iv) | HR ± SE, 5 min. after adm. of test compound ([4]; 6 mg/kg iv) | Ouabain dose ± SE, inducing arrhythmia ([4]; 6 mg/kg iv) | Ouabain dose ± SE, inducing asystole ([4]; 6 mg/kg iv) | HR ± SE, O-value [4, 14] | HR ± SE, O-value [4, 15] | ED50 [6, 17] | ED50 [8] | further results |
| --- | --- | --- | --- | --- | --- | --- | --- | --- | --- | --- | --- | --- |
| CC(=O)NS(=O)(=O)CCN1C(=O)c2ccccc2C1=O [2-Phthalimidoethanesulfonyl acetamide, 2-phthalimidoethanesulfonyl acetamide] | > 300 mg/kg | 259 ± 10 beats/min. | 0.215 ± 0.024 mg/kg | 0.355 ± 0.02 mg/kg | 334 ± 11 beats/min. | 0.212 ± 0.016 mg/kg | 0.345 ± 0.026 mg/kg | 260 ± 9 beats/min. | 329 ± 15 beats/min. | > 300 mg/kg |  | Antiarrhythmic effect [2]: had an antiarrhythmic; Prolongation of hexobarbiturate-induced sleep [3]: did not prolong the time of sleep; HR ± SE, 5 min. after adm. of test compound ([4]; 1 mg/kg iv): 316 ± 10 beats/min.; Ouabain dose ± SE, inducing arrhythmia ([4]; 1 mg/kg iv): 0.185 ± 0.005 mg/kg; Ouabain dose ± SE, inducing asystole ([4]; 1 mg/kg iv): 0.307 ± 0.002 mg/kg; HR ± SE, 5 min. after adm. of test compound ([4]; 12 mg/kg iv): 349 ± 19 beats/min.; Ouabain dose ± SE, inducing arrhythmia ([4]; 12 mg/kg iv): 0.21 ± 0.016 mg/kg; Ouabain dose ± SE, inducing asystole ([4]; 12 mg/kg iv): 0.36 ± 0.013 mg/kg; HR ± SE, O-value ([4]; O-value (initial), group dosed 1 mg/kg iv): 292 ± 1 beats/min.; HR ± SE, O-value [4, 16]: 329 ± 19 beats/min.; Anticonvulsive effect [5]: no anticonvulsive effect |
| CC(C)(C)C(=O)NCCS(=O)(=O)O [N-pivaloyl taurine] |  |  |  |  |  |  |  |  |  |  |  | Penetration of the blood-brain barrier [7]: penetrated the blood-brain barrier |
| O=C1c2ccccc2C(=O)N1CCS(=O)(=O)N1CCCC1 [2-Phthalimidoethanesulfone pyrrolidide] | > 300 mg/kg |  |  |  |  |  |  |  |  | > 300 mg/kg |  |  |
| CN(C)S(=O)(=O)CCN1C(=O)c2ccccc2C1=O [2-Phthalimidoethanesulfone dimethylamide, 2-phthalimidoethanesulfone dimethylamide] | 113 mg/kg |  |  |  |  |  |  |  |  | 231 mg/kg | 234 mg/kg | Antibacterial properties [9]: did not come up to expectations |
| CC(=O)NCCS(=O)(=O)O [N-acetyl taurine] |  |  |  |  |  |  |  |  |  |  |  | Penetration of the blood-brain barrier [10]: penetrate the bloodbrain barrier |
| CCNS(=O)(=O)CCN1C(=O)c2ccccc2C1=O [2-Phthalimidoethanesulfone ethylamide] | 103 mg/kg | 332 ± 16 beats/min. | 0.175 ± 0.005 mg/kg | 0.318 ± 0.022 mg/kg | 270 beats/min. | 0.15 mg/kg | 0.36 mg/kg | 332 ± 22 beats/min. | 285 beats/min. | 138 mg/kg | 126 mg/kg |  |
| CCCNS(=O)(=O)CCN1C(=O)c2ccccc2C1=O [2-Phthalimidoethanesulfone n-propylamide] | 252 mg/kg | 294 ± 45 beats/min. | 0.16 ± 0.01 mg/kg | 0.322 ± 0.062 mg/kg |  |  |  | 286 ± 55 beats/min. |  | > 300 mg/kg | > 300 mg/kg | HR ± SE, 5 min. after adm. of test compound ([4]; 2 mg/kg iv): 243 ± 18 beats/min.; Ouabain dose ± SE, inducing arrhythmia ([4]; 2 mg/kg iv): 0.165 ± 0.01 mg/kg; Ouabain dose ± SE, inducing asystole ([4]; 2 mg/kg iv): 0.272 ± 0.027 mg/kg; HR ± SE, O-value ([4]; O-value (initial), group dosed 2 mg/kg iv): 229 ± 34 beats/min. |
| CC(C)NS(=O)(=O)CCN1C(=O)c2ccccc2C1=O [2-Phthalimidoethanesulfone isopropylamide] |  | 312 ± 27 beats/min. | 0.197 ± 0.032 mg/kg | 0.297 ± 0.027 mg/kg | 291 beats/min. | 0.155 mg/kg | 0.29 mg/kg | 321 ± 39 beats/min. | 303 beats/min. |  | 227 mg/kg | ED50 [1]: 130 mg/kg; ED50 [6]: > 300 mg/kg |
| NS(=O)(=O)CCN1C(=O)c2ccccc2C1=O [2-Phthalimidoethanesulfone amide, 2-phthalimidoethane sulfonamide] | 122 mg/kg |  |  |  |  |  |  |  |  | > 300 mg/kg | 93 mg/kg | Antibacterial properties [9]: did not come up to expectations; HR ± SE, 5 min. after adm. of test compound ([4]; 12 mg/kg iv): 330 beats/min.; Ouabain dose ± SE, inducing arrhythmia ([4]; 12 mg/kg iv): 0.17 mg/kg; Ouabain dose ± SE, inducing asystole ([4]; 12 mg/kg iv): 0.22 mg/kg; HR ± SE, O-value [4, 16]: 333 beats/min. |
| NCCS(=O)(=O)O [Taurine, 2-aminoethanesulfonic acid] |  |  |  |  |  |  |  |  |  |  |  | Antiepileptic action [11]: antiepileptic action; Direct central anticonvulsive effect [12]: direct central anticonvulsive effect |
| CNS(=O)(=O)CCN1C(=O)c2ccccc2C1=O [2-Phthalimidoethanesulfone methylamide] | 112 mg/kg |  |  |  | 255 ± 51 beats/min. | 0.188 ± 0.017 mg/kg | 0.345 ± 0.02 mg/kg |  | 261 ± 45 beats/min. | 170 mg/kg | 189 mg/kg | HR ± SE, 5 min. after adm. of test compound ([4]; 12 mg/kg iv): 399 ± 22 beats/min.; Ouabain dose ± SE, inducing arrhythmia ([4]; 12 mg/kg iv): 0.195 ± 0.015 mg/kg; Ouabain dose ± SE, inducing asystole ([4]; 12 mg/kg iv): 0.265 ± 0.05 mg/kg; HR ± SE, O-value [4, 16]: 369 ± 30 beats/min. |
| CC(C)NCC(O)COc1cccc2ccccc12 (stereo not drawn) [Propranolol, reference compound] |  |  | 0.295 ± 0.035 mg/kg | 0.435 ± 0.024 mg/kg |  | 0.269 ± 0.039 mg/kg | 0.418 ± 0.034 mg/kg |  |  |  |  | Ouabain dose ± SE, inducing arrhythmia ([4]; 1 mg/kg iv): 0.24 ± 0.005 mg/kg; Ouabain dose ± SE, inducing asystole ([4]; 1 mg/kg iv): 0.363 ± 0.011 mg/kg; HR ± SE, O-value ([4]; guinea pig, in vivo, iv, 1 mg/kg): 280 ± 17 beats/min.; HR ± SE, O-value ([4]; guinea pig, in vivo, iv, 3 mg/kg): 293 ± 17 beats/min.; HR ± SE, O-value ([4]; guinea pig, in vivo, iv, 6 mg/kg): 301 ± 10 beats/min.; Bradycardia ([4]; guinea-pigs): caused bradycardia |
| CCCCNS(=O)(=O)CCN1C(=O)c2ccccc2C1=O [2-Phthalimidoethanesulfone n-butylamide] | 219 mg/kg | 213 beats/min. | 0.175 mg/kg | 0.34 mg/kg | 256 ± 43 beats/min. | 0.2 ± 0 mg/kg | 0.382 ± 0.037 mg/kg | 210 beats/min. | 256 ± 19 beats/min. | > 300 mg/kg |  |  |
| CC(C)(C)NS(=O)(=O)CCN1C(=O)c2ccccc2C1=O [2-Phthalimidoethanesulfone tert-butylamide] | > 300 mg/kg |  |  |  |  |  |  |  |  | > 300 mg/kg |  |  |
